Measured values published in PMC5703532, “Establishment of an indirect ELISA for detection of the novel antifibrotic peptide M10” (PLoS ONE, 2017).
Peptide text beside a SMILES is read from it.

What was measured:
in vivo = conditions: both, C57BL/6, mouse, ip, 1 mg/kg
Procedure: (§2) Mice (n = 30), C57BL/6 males and females 8–10 weeks old weighing 20–25 g, purchased from Jackson Laboratories (Bar Harbor, ME) were used in this study. Mice were housed in ventilated racks in specific pathogen free conditions and were provided with food and water available ad libitum. M10 peptide was solubilized in water and administered intraperitoneally in a dose of 1 mg/kg. Mice were sacrificed by isoflurane overdose, and blood samples were collected by cardiac puncture in the presence of 0.01% of Na-Citrate at time intervals of 15 min, 30 min, 1, 2, 4, 6, 12, 24, and 48 hours after injection. The blood samples (n = 3/group) were centrifuged at 2500 rpm for 10 min, and plasma samples were stored at -80°C. Plasma samples collected from mice injected with water intraperitoneally (n = 3) were used as a negative control.
(§3) M10 concentration was measured by indirect ELISA developed in our laboratory. Known concentrations of pharmaceutical grade M10 peptide (GenScript, Piscataway, NJ) with purity more than 98% were used to generate the standard curve. Briefly, 100μl of known concentration of M10 (range: 10 ng/ml to 500 ng/ml), blank (PBS without M10), and 100μl of the diluted plasma sample were plated in triplicate in high-affinity polystyrene micro-titer plates. Samples were incubated with gentle rocking overnight at 4°C and blocked with 5% bovine serum albumin in PBS. After washing, samples were incubated for 2 hours at room temperature with anti-cMET rabbit antibody (Santa Cruz Biotechnology, Santa Cruz, CA), followed by 1hour incubation with HRP-conjugated anti-Rabbit IgG (Rockland, Limerick, PA). M10 was detected with ultra-TMB (3, 3’, 5, 5’-tetramethylbenzidine)-substrate, and the reaction was terminated by using 2M sulfuric acid. Absorbance was measured at 450 nm by Spectra Max Plus spectrophotometer. Concentrations of unknown samples were then calculated from their corresponding optical density (OD) values by Softmax Pro 4.8 software (Molecular Devices, Sunnyvale, CA) using the standard curve generated from the known concentrations of M10. Control plasma samples collected from mice with intraperitoneal water injection were run in triplicate with each experiment, mean was calculated, and samples were normalized by subtracting the negative control mean value. Final concentrations were calculated by adjusting the sample dilution factor.
(§4) To obtain the pharmacokinetic profile of M10 in mouse plasma, C57Bl6 mice were injected intraperitoneally with M10 at a dose of 1mg/kg of body weight. Plasma samples were collected by cardiac puncture in the presence of 0.01% of Na-Citrate at time intervals of 15 min, 30 min, 1h, 2h, 4h, 6h, 12 h, 24 h, and 48 h following injection. Samples were diluted in PBS in order to fit within the range of the standard curves and then tested using the M10 ELISA. Concentration of M10 in plasma samples was calculated by Softmax Pro 4.8 software using the standard curve generated from the known concentration of M10. The samples were normalized by subtracting the negative controls represented by plasma samples obtained from mice injected with H2O.

[1] = test system: caspases, thrombin, factor Xa, trypsin and granzyme B; conditions: cited from earlier work
[2] = in vivo, ip, 1 mg/kg
Procedure: as §2, §3, §4

[3] = test system: human lung and skin fibroblasts; conditions: cited from earlier work
Excerpt: (§1) We recently discovered a 10 amino acid antifibrotic peptide (M10) with antifibrotic properties in vitro and in a murine model of lung fibrosis, which is a natural cleavage product by caspase-3 of the cytoplasmic tail of the c-MET receptor tyrosine kinase. Following binding of hepatocyte growth factor (HGF), c-MET undergoes auto phosphorylation at tyrosine residues in its cytoplasmic domain and initiates a cascade of signal transduction events leading to specific cellular responses implicated in embryonic development and tissue regeneration after injury.

Smad2 = conditions: cited from earlier work
Excerpt: as §1

[4] = test system: bleomycin-induced mouse model of lung fibrosis; conditions: cited from earlier work
Excerpt: as §1

[5] = Mean M10 concentration in plasma

- AUC(0-t) (in vivo): 72500 ± 2390 ng·h/mL
- Tmax (in vivo): 6 h
- half-life (in vivo): 6.8 ± 0.7 h
- level at 4 h (in vivo; [5]): 3590 ng/mL
- level at 6 h (in vivo; [5]): 4550 ng/mL
- level at 12 h (in vivo; [5]): 3140 ng/mL
- level at 24 h (in vivo; [5]): 801 ng/mL
- level at 48 h (in vivo; [5]): 366 ng/mL
- Mean M10 concentration in plasma ([2]; both, C57BL/6, mouse, 24 h): 1216 ng/mL
- Cmax (peak plasma concentration) ([2]; mouse): 4861.5 ± 11.5 ng/mL
- Time by which plasma concentration declined to minimal (detectable) levels ([2]; mouse): ≤ 48 h
Compound: C[C@H](NC(=O)[C@@H]1CCCN1C(=O)[C@H](CCCNC(=N)N)NC(=O)[C@@H](N)[C@@H](C)O)C(=O)N[C@@H](CO)C(=O)N[C@@H](Cc1ccccc1)C(=O)N[C@@H](Cc1c[nH]c2ccccc12)C(=O)N[C@@H](CCC(=O)O)C(=O)N[C@H](C(=O)N[C@@H](CO)C(=O)O)[C@@H](C)O [M10] (H-TRPASFWETS-OH; N-terminus and C-terminus assumed)
- Resistance to mammalian proteases [1]: resistance to many mammalian proteases
- Effect on collagen [3]: reduces collagen
- Interaction with Smad2 (Smad2): interacts with Smad2
- Effect on collagen [4]: reduces collagen
